For 29 compounds, IC50 results are on record in patent US20060063784A1, “Method of using substituted pyrazolo [1,5-a] pyrimidines” (priority 2004, published 2006).

The structures appear in SMILES notation. Read-outs that look alike come from different tables or passages of the source.

Assay [1] concerns 80S14 (p21-deficient) cells. As to the kind of experiment: Cytotoxicity assay using isogenic cell lines: IC50 in 80S14 (p21-deficient) cells, SRB. In kind it is cell-based, human. Conditions: Homo sapiens. The gist of the method: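 IC50 is the concentration halving proliferation relative to untreated controls, read from SRB absorbance (560 nm) after TCA fixation. Test agent dilutions (5 pM–50 μM or 170 pg/ml–10 μg/ml) were left on p21-deficient 80S14 cells (12,000/well, pre-incubated overnight) for 5 days at 37 °C.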

Assay [2] has as its system LoVo Colon cell line. As to the kind of experiment: Cytotoxicity assay using LoVo colon cell line, SRB. Type of assay: cell-based. Conditions: Homo sapiens, 96 h, read-out: Inhibition of LoVo. Summed up:
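Growth inhibition read by sulforhodamine B after 4-day compound exposure at 37 °C. Colon LoVo cells plated at 4000 per well in RPMI/10% FBS a day earlier; doses ranged 5 pM-20 μM or 170 pg/ml-10 μg/ml. IC50 is the concentration halving proliferation versus untreated wells.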

[3] abbreviates: 120 h, 80S14 (p21-deficient) cells, 5 days, SRB, class symbols, read-out: IC50 for 80S14.
Setting [4] is: Cellular activity in LoVo cell, 4 days incubation, SRB.

As for `CCCCNc1cccc(-c2ccnc3c(C(=O)c4cccs4)cnn23)c1` [Example 380, {7-[3-(Butylamino)phenyl]pyrazolo[1,5-a]pyrimidin-3-yl}(thien-2-yl)methanone], the figures for the IC50 in assay [1] (setting [3]) and in assay [2] (setting [4]) were under 1 µM and under 100 nM, respectively.
`O=C(Nc1cc(-c2ccnc3c(C(=O)c4cccs4)cnn23)ccc1F)OCCCl` [Example 381, 2-Chloroethyl 2-fluoro-5-[3-(thien-2-ylcarbonyl)pyrazolo[1,5-a]pyrimidin-7-yl]phenylcarbamate]: the IC50 in assay [1] (80S14, 120 h, read-out: IC50 for 80S14 (uM)) is under 1 µM; in assay [2] (LoVo), under 100 nM.
In the case of `CC(C)NC(=O)Nc1cc(-c2ccnc3c(C(=O)c4cccs4)cnn23)ccc1F` [Example 382, N-{2-Fluoro-5-[3-(thien-2-ylcarbonyl)pyrazolo[1,5-a]pyrimidin-7-yl]phenyl}-N′-isopropylurea], the IC50 in assay [1] (setting [3]) is under 1 µM; in assay [2] (setting [4]), under 100 nM.
As to `O=C(Nc1cccc(-c2ccnc3c(C(=O)c4cccs4)cnn23)c1)c1ccc(-n2cccc2)cc1` [Example 383, 4-(1H-pyrrol-1-yl)-N-{3-[3-(thien-2-ylcarbonyl)pyrazolo[1,5-a]pyrimidin-7-yl]phenyl}benzamide], the IC50 in assay [1] (setting [3]) was 1 to 10 µM; in assay [2] (setting [4]) it was 100 to 1000 nM.
On to `O=C(Nc1cccc(-c2ccnc3c(C(=O)c4cccs4)cnn23)c1)c1c(Cl)cccc1Cl` [Example 384, 2,6-Dichloro-N-{3-[3-(thien-2-ylcarbonyl)pyrazolo[1,5-a]pyrimidin-7-yl]phenyl}benzamide], for which the values for the IC50 in assay [1] (setting [3]) and in assay [2] (setting [4]) were 1 to 10 µM and 100 to 1000 nM, respectively.
For `O=C(Nc1cccc(-c2ccnc3c(C(=O)c4cccs4)cnn23)c1)c1cnccn1` [Example 385, N-{3-[3-(Thien-2-ylcarbonyl)pyrazolo[1,5-a]pyrimidin-7-yl]phenyl}pyrazine-2-carboxamide] the same measures were under 1 µM and under 100 nM.
As to `N#CN=C(Nc1cccc(-c2ccnc3c(C(=O)c4cccs4)cnn23)c1)Oc1ccccc1` [Example 386, Phenyl N′-cyano-N-{3-[3-(thien-2-ylcarbonyl)pyrazolo[1,5-a]pyrimidin-7-yl]phenyl}imidocarbamate], the values for the IC50 in assay [1] (setting [3]) and in assay [2] (setting [4]) were 1 to 10 µM and 1000 to 20000 nM, respectively.
For `Cn1cccc1C(=O)Nc1cccc(-c2ccnc3c(C(=O)c4cccs4)cnn23)c1` [Example 387, 1-Methyl-N-{3-[3-(thien-2-ylcarbonyl)pyrazolo[1,5-a]pyrimidin-7-yl]phenyl}-1H-pyrrole-2-carboxamide], the IC50 was under 1 µM in assay [1] (setting [3]) and under 100 nM in assay [2] (setting [4]).
Consider `O=C(Nc1cc(-c2ccnc3c(C(=O)c4cccs4)cnn23)ccc1F)c1ccncc1` [Example 388, N-{2-Fluoro-5-[3-(thien-2-ylcarbonyl)pyrazolo[1,5-a]pyrimidin-7-yl]phenyl}isonicotinamide], for which the IC50 in assay [1] (setting [3]) is under 1 µM; in assay [2] (setting [4]), under 100 nM.
In the case of `CC(C)NC(=S)Nc1cccc(-c2ccnc3c(C(=O)c4cccs4)cnn23)c1` [Example 389, N-Isopropyl-N′-{3-[3-(thien-2-ylcarbonyl)pyrazolo[1,5-a]pyrimidin-7-yl]phenyl}thiourea], the IC50 in assay [1] (setting [3]) is under 1 µM; in assay [2] (setting [4]) it was under 100 nM.
For the compound `O=C(c1cccs1)c1cnn2c(-c3cccc(N(C(=O)c4c(Cl)cccc4Cl)C(=O)c4c(Cl)cccc4Cl)c3)ccnc12` [Example 391, 2,6-Dichloro-N-(2,6-dichlorobenzoyl)-N-{3-[3-(thien-2-ylcarbonyl)pyrazolo[1,5-a]pyrimidin-7-yl]phenyl}benzamide], the IC50 lay within 10 to 50 µM in assay [1] (setting [3]) and 1000 to 20000 nM in assay [2] (setting [4]).
For the compound `O=C(CC1CCNCC1)Nc1cccc(-c2ccnc3c(C(=O)c4cccs4)cnn23)c1` [Example 393, 2-Piperidin-4-yl-N-{3-[3-(thien-2-ylcarbonyl)pyrazolo[1,5-a]pyrimidin-7-yl]phenyl}acetamide], the values for the IC50 in assay [1] (setting [3]) and in assay [2] (setting [4]) were 1 to 10 µM and 100 to 1000 nM, respectively.
As for `CCN(CC)c1cccc(-c2ccnc3c(C(=O)c4cccs4)cnn23)c1` [Example 394, {7-[3-(Diethylamino)phenyl]pyrazolo[1,5-a]pyrimidin-3-yl}(thien-2-yl)methanone], the IC50 in assay [1] (setting [3]) is 1 to 10 µM; in assay [2] (setting [4]) it was 100 to 1000 nM.
`COc1ccc(/C=C/CNc2cccc(-c3ccnc4c(C(=O)c5cccs5)cnn34)c2)cc1` [Example 396, [7-(3-{[(2E)-3-(4-Methoxyphenyl)prop-2-enyl]amino}phenyl)pyrazolo[1,5-a]pyrimidin-3-yl](thien-2-yl)methanone]: the IC50 was in the range of 10 to 50 µM in assay [1] (setting [3]) and 1000 to 20000 nM in assay [2] (setting [4]).
For `O=C(c1cccs1)c1cnn2c(-c3cccc(NC/C=C/c4ccc([N+](=O)[O-])cc4)c3)ccnc12` [Example 398, [7-(3-{[(2E)-3-(4-Nitrophenyl)prop-2-enyl]amino}phenyl)pyrazolo[1,5-a]pyrimidin-3-yl] (thien-2-yl)methanone] the same measures were 10 to 50 µM and 1000 to 20000 nM.
On to `O=C(c1cccs1)c1cnn2c(-c3cccc(NCC=C(c4ccccc4)c4ccccc4)c3)ccnc12` [Example 399, (7-{3-[(3,3-Diphenylprop-2-enyl)amino]phenyl}pyrazolo[1,5-a]pyrimidin-3-yl)(thien-2-yl)methanone], for which the IC50 in assay [1] (setting [3]) lay in the range of 10 to 50 µM; in assay [2] (setting [4]), 1000 to 20000 nM.
On to `CCCCC(CC)CNc1cccc(-c2ccnc3c(C(=O)c4cccs4)cnn23)c1` (stereo not shown) [Example 419, (7-{3-[(2-Ethylhexyl)amino]phenyl}pyrazolo[1,5-a]pyrimidin-3-yl)(thien-2-yl)methanone], for which the values for the IC50 in assay [1] (setting [3]) and in assay [2] (setting [4]) were 1 to 10 µM and 1000 to 20000 nM, respectively.
Consider `CN(C)c1ccc(-c2ccnc3c(C(=O)c4cccs4)cnn23)cc1NC(=O)c1ccccc1Cl` [Example 421, 2-Chloro-N-{2-(dimethylamino)-5-[3-(thien-2-ylcarbonyl)pyrazolo[1,5-a]pyrimidin-7-yl]phenyl}benzamide], for which the IC50 in assay [1] (setting [3]) is under 1 µM; in assay [2] (setting [4]), 100 to 1000 nM.
As to `CCNc1cccc(-c2ccnc3c(C(=O)c4cccs4)cnn23)c1` [Example 422, {7-[3-(Ethylamino)phenyl]pyrazolo[1,5-a]pyrimidin-3-yl}(thien-2-yl)methanone], the IC50 in assay [1] (setting [3]) lay in the range of 1 to 10 µM; in assay [2] (setting [4]) it was 100 to 1000 nM.
The corresponding values for `O=C(CCCN1CCOCC1)Nc1cccc(-c2ccnc3c(C(=O)c4cccs4)cnn23)c1` [Example 423, 4-Morpholin-4-yl-N-{3-[3-(thien-2-ylcarbonyl)pyrazolo[1,5-a]pyrimidin-7-yl]phenyl}butanamide] are 1 to 10 µM and 100 to 1000 nM.
As for `O=C(Nc1cccc(-c2ccnc3c(C(=O)c4cccs4)cnn23)c1)OCc1cccnc1` [Example 424, Pyridin-3-ylmethyl 3-[3-(thien-2-ylcarbonyl)pyrazolo[1,5-a]pyrimidin-7-yl]phenylcarbamate], the IC50 in assay [1] (setting [3]) was under 1 µM; in assay [2] (setting [4]), 1000 to 20000 nM.
On to `O=C(Nc1cccc(-c2ccnc3c(C(=O)c4cccs4)cnn23)c1)OCCCN1CCOCC1` [Example 425, 3-Morpholin-4-ylpropyl 3-[3-(thien-2-ylcarbonyl)pyrazolo[1,5-a]pyrimidin-7-yl]phenylcarbamate], for which the IC50 in assay [1] (setting [3]) was in the range of 1 to 10 µM; in assay [2] (setting [4]), 100 to 1000 nM.
For `CC/C=C(\C)CNc1cccc(-c2ccnc3c(C(=O)c4cccs4)cnn23)c1` [Example 426, [7-(3-{[(2E)-2-Methylpent-2-enyl]amino}phenyl)pyrazolo[1,5-a]pyrimidin-3-yl](thien-2-yl)methanone] the same measures were 1 to 10 µM and 100 to 1000 nM.
Consider `O=C(Cc1ccncc1)Nc1cccc(-c2ccnc3c(C(=O)c4cccs4)cnn23)c1` [Example 427, 2-Pyridin-4-yl-N-{3-[3-(thien-2-ylcarbonyl)pyrazolo[1,5-a]pyrimidin-7-yl]phenyl}acetamide], for which the IC50 is under 1 µM in assay [1] (setting [3]) and 1000 to 20000 nM in assay [2] (setting [4]).
In the case of `O=C(Nc1cccc(-c2ccnc3c(C(=O)c4cccs4)cnn23)c1)OCc1ccccn1` [Example 429, Pyridin-2-ylmethyl 3-[3-(thien-2-ylcarbonyl)pyrazolo[1,5-a]pyrimidin-7-yl]phenylcarbamate], the IC50 in assay [1] (setting [3]) is 1 to 10 µM; in assay [2] (setting [4]) it was 100 to 1000 nM.
With `CCC(C)C(C)CNc1cccc(-c2ccnc3c(C(=O)c4cccs4)cnn23)c1` (stereo not shown) [Example 430, (7-{3-[(2,3-Dimethylpentyl)amino]phenyl}pyrazolo[1,5-a]pyrimidin-3-yl)(thien-2-yl)methanone], the results for the IC50 in assay [1] (setting [3]) and in assay [2] (setting [4]) were 1 to 10 µM and 100 to 1000 nM, respectively.
Consider `C/C=C(\C)CNc1cccc(-c2ccnc3c(C(=O)c4cccs4)cnn23)c1` [Example 431, [7-(3-{[(2E)-2-Methylbut-2-enyl]amino}phenyl)pyrazolo[1,5-a]pyrimidin-3-yl] (thien-2-yl)methanone], for which the IC50 in assay [1] (setting [3]) lay within 1 to 10 µM; in assay [2] (setting [4]), 100 to 1000 nM.
Regarding `CC/C=C/CNc1cccc(-c2ccnc3c(C(=O)c4cccs4)cnn23)c1` [Example 432, (7-{3-[(2E)-Pent-2-enylamino]phenyl}pyrazolo[1,5-a]pyrimidin-3-yl)(thien-2-yl)methanone], the results for the IC50 in assay [1] (setting [3]) and in assay [2] (setting [4]) were under 1 µM and under 100 nM, respectively.
`CC(CCNc1cccc(-c2ccnc3c(C(=O)c4cccs4)cnn23)c1)CC(C)(C)C` (stereo not shown) [Example 433, Thien-2-yl(7-{3-[(3,5,5-trimethylhexyl)amino]phenyl}pyrazolo[1,5-a]pyrimidin-3-yl)methanone]: the IC50 in assay [1] (setting [3]) was in the range of 1 to 10 µM; in assay [2] (setting [4]), 100 to 1000 nM.
